Laboratory results: ChEMBL document CHEMBL1154169, “Activity and molecular modeling of a new small molecule active against NNRTI-resistant HIV-1 mutants” (Eur J Med Chem, 2009)

Legend:
[1] = system: Human immunodeficiency virus 1; experiment: Antiviral activity against HIV1 3B infected in human MT4 cells assessed as protection against virus-induced cytopathogenicity after 4 days by MTT assay; assay type: functional, organism-based; conditions: Human immunodeficiency virus 1, 3B, MT4, 96 h
[2] = system: Coxsackievirus B2; experiment: Antiviral activity against Coxsackievirus B2 infected in african green monkey Vero cells assessed as reduction of virus plaque formation after 3 days; assay type: functional, organism-based; conditions: Enterovirus B, 72 h
[3] = system: Respiratory syncytial virus; experiment: Antiviral activity against Respiratory syncytial virus assessed as reduction of virus plaque formation by cell based assay; assay type: functional, organism-based; conditions: human respiratory syncytial virus
[4] = system: Yellow fever virus; experiment: Antiviral activity against Yellow fever virus infected in BHK-21 cells assessed as protection against virus-induced cytopathogenicity after 2 to 3 days by MTT assay; assay type: functional, organism-based
[5] = system: Human immunodeficiency virus 1; experiment: Antiviral activity against NNRTI-resistant HIV1 A17 with reverse transcriptase K103N, Y181C mutant infected in human MT4 cells assessed as protection against virus-induced cytopathogenicity after 4 days by MTT assay; assay type: functional, organism-based; conditions: Human immunodeficiency virus 1, A17, MT4, 96 h
[6] = system: Poliovirus 1; experiment: Antiviral activity against Poliovirus Sb-1 infected in african green monkey Vero cells assessed as reduction of virus plaque formation after 3 days; assay type: functional, cell-based; conditions: Enterovirus C, Sabin, 72 h
[7] = system: Vesicular stomatitis virus; experiment: Antiviral activity against Vesicular stomatitis virus assessed as reduction of virus plaque formation by cell based assay; assay type: functional, organism-based
[8] = system: Human immunodeficiency virus 1; experiment: Antiviral activity against HIV1 EFV with reverse transcriptase K103R, V179D, P225H mutant infected in human MT4 cells assessed as protection against virus-induced cytopathogenicity after 4 days by MTT assay; assay type: functional, organism-based; conditions: Human immunodeficiency virus 1, EFV, MT4, 96 h
[9] = system: Human immunodeficiency virus 1; experiment: Antiviral activity against NNRTI-resistant HIV1 N119 with reverse transcriptase Y181C mutant infected in human MT4 cells assessed as protection against virus-induced cytopathogenicity after 4 days by MTT assay; assay type: functional, organism-based; conditions: Human immunodeficiency virus 1, N119, MT4, 96 h
[10] = system: Bovine viral diarrhea virus 1; experiment: Antiviral activity against Bovine viral diarrhea virus infected in MDBK cells assessed as protection against virus-induced cytopathogenicity after 2 to 3 days by MTT assay; assay type: functional, organism-based; conditions: Bovine viral diarrhea virus isolates and strains
[11] = Cytotoxicity against human MT4 cells assessed as reduction of cell viability after 4 days by MTT assay; assay type: cell-based
[12] = system: Mammalian orthoreovirus 1; experiment: Antiviral activity against Reovirus 1 assessed as protection against virus-induced cytopathogenicity by cell based MTT assay; assay type: functional, organism-based
[13] = system: Vaccinia virus; experiment: Antiviral activity against Vaccinia virus assessed as reduction of virus plaque formation by cell based assay; assay type: functional, organism-based; conditions: Orthopoxvirus vaccinia
[14] = system: Human immunodeficiency virus; experiment: Inhibition of HIV reverse transcriptase RNA-dependent polymerase activity after 30 mins by fluorescent microplate assay

Structure (SMILES): CCOn1nnc2c1Cc1cccnc1C2
- EC50 [1]: > 100 µM
- EC50 [2]: > 100 µM
- EC50 [3]: > 100 µM
- EC50 [4]: > 100 µM
- EC50 [5]: > 100 µM
- EC50 [6]: > 100 µM
- EC50 [7]: > 100 µM
- EC50 [8]: > 100 µM
- EC50 [9]: > 100 µM
- EC50 [10]: > 100 µM
- CC50 at 96 h [11]: > 100 µM
- EC50 [12]: > 100 µM
- EC50 [13]: > 100 µM

Structure (SMILES): [O-][n+]1n[nH]c2c(Cl)c3ncccc3cc21
- EC50 [1]: > 100 µM
- EC50 [2]: > 100 µM
- EC50 [3]: > 100 µM
- EC50 [4]: > 100 µM
- EC50 [5]: > 100 µM
- EC50 [6]: > 100 µM
- EC50 [7]: > 100 µM
- EC50 [8]: > 100 µM
- EC50 [9]: > 100 µM
- EC50 [10]: > 100 µM
- CC50 at 96 h [11]: > 100 µM
- EC50 [12]: > 100 µM
- EC50 [13]: > 100 µM

Structure (SMILES): [O-][n+]1n[nH]c2c1Cc1cccnc1C2
- EC50 [1]: 12 µM
- EC50 [2]: > 100 µM
- EC50 [3]: > 100 µM
- EC50 [4]: > 100 µM
- EC50 [5]: 10 µM
- EC50 [6]: > 100 µM
- EC50 [7]: > 100 µM
- EC50 [8]: 9 µM
- EC50 [9]: 4 µM
- EC50 [10]: > 100 µM
- CC50 at 96 h [11]: > 100 µM
- Activity [14]: Dose-dependent effect
- EC50 [12]: > 100 µM
- EC50 [13]: > 100 µM

Structure (SMILES): O=C1Nc2ccc(Cl)cc2[C@@](C#CC2CC2)(C(F)(F)F)O1 [EFAVIRENZ]
- EC50 [5]: 0.06 µM
- EC50 [8]: 7 µM
- CC50 at 96 h [11]: 45 µM

Structure (SMILES): Cc1ccnc2c1NC(=O)c1cccnc1N2C1CC1 [NEVIRAPINE]
- EC50 [5]: > 20 µM
- EC50 [8]: > 20 µM
- EC50 [9]: 7 µM
- CC50 at 96 h [11]: > 100 µM

Structure (SMILES): c1c2c(cc3[nH]nnc13)NCCC2
- EC50 [1]: > 100 µM
- EC50 [2]: > 100 µM
- EC50 [3]: > 100 µM
- EC50 [4]: > 100 µM
- EC50 [5]: > 100 µM
- EC50 [6]: > 100 µM
- EC50 [7]: > 100 µM
- EC50 [8]: > 100 µM
- EC50 [9]: > 100 µM
- EC50 [10]: > 100 µM
- CC50 at 96 h [11]: > 100 µM
- EC50 [12]: > 100 µM
- EC50 [13]: > 100 µM

Structure (SMILES): c1cnc2cc3[nH]nnc3cc2c1
- EC50 [1]: > 100 µM
- EC50 [2]: > 100 µM
- EC50 [3]: > 100 µM
- EC50 [4]: > 100 µM
- EC50 [5]: > 100 µM
- EC50 [6]: > 100 µM
- EC50 [7]: > 100 µM
- EC50 [8]: > 100 µM
- EC50 [9]: > 100 µM
- EC50 [10]: > 100 µM
- CC50 at 96 h [11]: > 100 µM
- EC50 [12]: > 100 µM
- EC50 [13]: > 100 µM

Structure (SMILES): c1cnc2c(c1)Cc1nn[nH]c1C2
- EC50 [1]: > 100 µM
- EC50 [2]: > 100 µM
- EC50 [3]: > 100 µM
- EC50 [4]: > 100 µM
- EC50 [5]: > 100 µM
- EC50 [6]: > 100 µM
- EC50 [7]: > 100 µM
- EC50 [8]: > 100 µM
- EC50 [9]: > 100 µM
- EC50 [10]: > 100 µM
- CC50 at 96 h [11]: > 100 µM
- EC50 [12]: > 100 µM
- EC50 [13]: > 100 µM
